Measurements published in ChEMBL document CHEMBL4354883, “Design, Synthesis, and Biological Evaluation of HSP90 Inhibitor-SN38 Conjugates for Targeted Drug Accumulation” (J Med Chem, 2020).
Activity calls are given as the source filed them. No cut-off for these calls is given here.

Experiments:
Heat shock protein HSP90 [1] = target: T1, Heat shock protein HSP90 (Homo sapiens, UniProt P07900+P08238); assay: Inhibition of HSP90 in human A549 cells assessed as upregulation of HSP70 expression at 0.2 to 5 uM after 24 hrs by Western blot analysis; assay type: cell-based
Heat shock protein HSP90 [2] = target: T1, Heat shock protein HSP90; assay: Inhibition of HSP90 in human HCT116 cells assessed as downregulation of AKT protein expression after 24 hrs by Western blot analysis; assay type: cell-based
CAPAN-1 [3] = assay: Antitumor activity against human Capan1 cells xenografted in mouse assessed as increase in apoptosis of tumor cells by measuring increase in green fluorescence at 50 mg/kg, iv for every 2 days measured at 2 hrs post last dose by TUNEL assay; assay type: functional, organism-based
[4] = Drug uptake in mouse plasma xenografted with human HCT116 cells assessed as increase in drug level with longer half life at 50 mg/kg, iv administered as single dose and measured after 30 mins to 72 hrs by LC-MS/MS analysis; assay type: ADME, organism-based; details: in vivo
[5] = Drug uptake in tumor of mouse xenografted with human Capan1 cells assessed as retention time of the compound at 50 mg/kg, iv by LC-MS/MS analysis; assay type: ADME, organism-based, Neoplasm; details: in vivo
[6] = Drug uptake in human HL7702 cells at 5 uM after 6 hrs in presence of HSP90 ATPase competitive inhibitor, NVP-AUY922 by confocal laser scanning microscopic analysis; assay type: ADME, cell-based; details: l02, 6 h
Heat shock protein HSP90 [7] = target: T1, Heat shock protein HSP90; assay: Inhibition of HSP90 in human A549 cells assessed as downregulation of Akt expression at 0.008 to 1 uM after 24 hrs by Western blot analysis; assay type: cell-based
[8] = Drug uptake in mouse plasma xenografted with human Capan1 cells at 50 mg/kg, iv after 30 mins by LC-MS/MS analysis; assay type: ADME, organism-based; details: in vivo, 0.5 h
Mus musculus = assay: In vivo inhibition of topoisomerase 1 in mouse xenografted with human Capan1 cells assessed as increase in phosphorylated KAP1 expression at 50 mg/kg, iv for every 2 days measured at 2 hrs post last dose by Western blot analysis; assay type: functional, organism-based
[9] = Prodrug release in tumor of mouse xenografted with human HCT116 cells assessed as increase in 7-ethyl-10-hydroxycamptothecin level by measuring retention time at 50 mg/kg, iv administered as single dose by LC-MS/MS analysis; assay type: ADME, organism-based, Neoplasm; details: in vivo
CAPAN-1 [10] = assay: Antitumor activity against human Capan1 cells xenografted in mouse assessed as reduction in Ki67 expression at 50 mg/kg, iv for every 2 days measured at 2 hrs post last dose by Ki67 staining based immunohistochemical analysis; assay type: functional, organism-based
[11] = Toxicity in spleen of mouse xenografted with human Capan1 cells assessed as pathological changes at 50 mg/kg, iv for every 2 days measured at 2 hrs post last dose by H and E staining based analysis; assay type: organism-based; details: in vivo
Heat shock protein HSP90 [12] = target: T1, Heat shock protein HSP90; assay: Inhibition of HSP90 in human A549 cells assessed as upregulation of HSP70 expression at 0.008 to 1 uM after 24 hrs by Western blot analysis; assay type: cell-based
[13] = Toxicity in mouse xenografted with human Capan1 cells assessed as increase in body weight at 50 mg/kg, iv for every 2 days; assay type: organism-based; details: in vivo, 48 h
[14] = Drug uptake in tumor of mouse xenografted with human HCT116 cells at 50 mg/kg, iv administered as single dose after 1 hr by LC-MS/MS analysis; assay type: ADME, organism-based, Neoplasm; details: in vivo

SMILES	inhibition (Heat shock protein HSP90 [1])	inhibition (Heat shock protein HSP90 [2])	Activity (CAPAN-1 [3])	Drug uptake [4]	Retention_time [5]	Drug uptake [6]	inhibition (Heat shock protein HSP90 [7])	Drug uptake [8]	inhibition (Mus musculus)	Retention_time [9]	Activity (CAPAN-1 [10])	Activity [11]	inhibition (Heat shock protein HSP90 [12])	Activity [13]	Drug uptake [14]
CCc1c2c(nc3ccc(OC(=O)N4CCC(NC(=O)c5noc(-c6cc(C(C)C)c(O)cc6O)c5-c5ccc(CN6CCOCC6)cc5)CC4)cc13)-c1cc3c(c(=O)n1C2)COC(=O)[C@]3(O)CC	Active	Dose-dependent effect													
CCc1c2c(nc3ccc(O)cc13)-c1cc3c(c(=O)n1C2)COC(=O)[C@@]3(CC)OC(=O)CNC(=O)c1noc(-c2cc(C(C)C)c(O)cc2O)c1-c1ccc(CN2CCOCC2)cc1			Active	Active	72 h	Not Active	inactive	Active	Active	72 h	Active	Toxic	inactive	10%	Not Active
